Data reported in ChEMBL document CHEMBL1124556, “Biphenylcarboxamide derivatives as antagonists of platelet-activating factor” (J Med Chem, 1989).

Tests used:
Format in all cases: functional
[1] = system: Cavia porcellus; assay: Platelet-activating factor-antagonist activity was assessed in guinea pig bronchoconstriction assay through peroral administration at a dose of 50 mg/kg at 6 hr; conditions: Lung, route oral
[2] = system: Cavia porcellus; assay: Platelet-activating factor-antagonist activity was assessed in guinea pig bronchoconstriction assay through peroral administration at a dose of 50 mg/kg at 2 hr; conditions: Lung, route oral
[3] = system: Cavia porcellus; assay: 50% inhibitory dose in a guinea pig bronchoconstriction assay of intravenous administration; conditions: Lung, read-out: ID50 (the source's name)
[4] = system: Cavia porcellus; assay: 50% inhibitory dose in a guinea pig bronchoconstriction assay through peroral administration; conditions: Lung, po, read-out: ID50 (the source's name)
[5] = system: Cavia porcellus; assay: 50% inhibitory dose in a guinea pig bronchoconstriction assay upon intravenous administration; conditions: Lung, read-out: ID50 (the source's name)
[6] = system: Cavia porcellus; assay: 50%inhibitory dose in a guinea pig bronchoconstriction assay through peroral administration; conditions: Lung, po, read-out: ID50 (the source's name)

SMILES | inhibition in vivo at 50 mg/kg [1] [%] | inhibition in vivo at 50 mg/kg [2] [%] | ED50 [3] [mg/kg] | ED50 [4] [mg/kg] | ED50 [5] [mg/kg] | ED50 [6] [mg/kg]
C=CCc1cc(C(=O)N[C@H](C)CCCc2cccnc2)ccc1-c1ccc(OC)c(OC)c1 | 26 | 93 | 0.33 | 24 | – | –
COc1cccc(-c2ccc(C(=O)NCCCCc3cccnc3)cc2)c1 | – | 55 | – | – | 0.51 | 50
COc1cccc(-c2ccc(C(=O)N[C@H](C)CCCc3cccnc3)cc2)c1 | – | 44 | 0.45 | – | – | –
CCCCc1cc(C(=O)N[C@H](C)CCCc2cccnc2)ccc1-c1ccc(OC)c(OC)c1 | 55 | 91 | 0.8 | 25 | – | –
COc1ccc(-c2ccc(C(=O)NCCCCc3cccnc3)cc2OC)cc1OC | 13 | 64 | 0.52 | – | – | –
COc1ccc(-c2ccc(C(=O)NCCCCc3cccnc3)cc2Br)cc1OC | 1 | 74 | 0.4 | 19 | – | –
CCc1cc(C(=O)N[C@H](C)CCCc2cccnc2)ccc1-c1ccc(OC)c(OC)c1 | 23 | 89 | 0.34 | 24 | – | –
COc1ccc(-c2ccc(C(=O)N[C@H](C)CCCc3cccnc3)cc2[N+](=O)[O-])cc1OC | 36 | 89 | 0.19 | 22 | – | –
COc1ccc(-c2ccc(C(=O)NCCCCc3cccnc3)cc2[N+](=O)[O-])cc1OC | 4 | 62 | 0.76 | 39 | – | –
O=C(NCCCCc1cccnc1)c1ccc(-c2ccccc2)c(-c2ccccc2)c1 | – | 33 | 3.2 | – | – | –
COc1ccc(-c2ccc(C(=O)N[C@H](C)CCCc3cccnc3)cc2)cc1OC | 29 | 88 | 0.62 | 30 | – | –
COc1ccc(-c2ccc(C(=O)N[C@H](C)CCCc3cccnc3)cc2Br)cc1OC | 59 | 97 | 0.4 | 14 | – | –
COc1ccc(-c2ccc(C(S)=N[C@H](C)CCCc3cccnc3)cc2)cc1OC | – | 37 | 0.31 | – | – | –
